Source: ChEMBL document CHEMBL3885881, “DrugMatrix”

Organism: Rattus norvegicus
Experiment: DrugMatrix - Regimen: Daily Repeat
Type: toxicity, organism-based, Sprague-Dawley
Design: regimen Daily Repeat, gender Male, age 6-8 weeks
Settings: in vivo, po, route oral GAVAGE, […]; for ABSOLUTE BASOPHIL / ABSOLUTE EOSINOPHIL / ABSOLUTE LYMPHOCYTE / ABSOLUTE MONOCYTE / ABSOLUTE SEGMENTED NEUTROPHIL / BASOPHIL / EOSINOPHIL / ERYTHROCYTE COUNT / HEMATOCRIT / HEMOGLOBIN / LEUKOCYTE COUNT / LYMPHOCYTE / MEAN CORPUSCULAR HEMOGLOBIN / MEAN CORPUSCULAR HEMOGLOBIN CONCENTRATION / MEAN CORPUSCULAR VOLUME / MONOCYTE / NEUTROPHIL / NUCLEATED RED BLOOD CELLS / PLATELET COUNT: tissue Blood; for ALANINE AMINOTRANSFERASE / ALBUMIN / ALKALINE PHOSPHATASE / ASPARTATE AMINOTRANSFERASE / BLOOD UREA NITROGEN / CARBON DIOXIDE / CHLORIDE / CHOLESTEROL / CREATINE PHOSPHOKINASE / CREATININE / GLUCOSE / LACTATE DEHYDROGENASE / LIPASE / PHOSPHORUS / POTASSIUM / SODIUM / TOTAL BILIRUBIN / TOTAL PROTEIN / URIC ACID: tissue Plasma
[1] = 81 mg/kg, 72 h, dose level High, time 3 day
[2] = 81 mg/kg, 120 h, dose level High, time 5 day
[3] = 72 h, dose 8.1 mg/Kg, dose level Low, time 3 day
[4] = 120 h, dose 8.1 mg/Kg, dose level Low, time 5 day

## Nc1ccc(Cc2ccc(N)cc2)cc1
[1]
  ABSOLUTE BASOPHIL: 0 CELLS/uL
  ABSOLUTE EOSINOPHIL: 75.33 CELLS/uL
  ABSOLUTE LYMPHOCYTE: 15902.67 CELLS/uL
  ABSOLUTE MONOCYTE: 589 CELLS/uL
  ABSOLUTE SEGMENTED NEUTROPHIL: 3066.33 CELLS/uL
  BASOPHIL: 0%
  EOSINOPHIL: 0.33%
  ERYTHROCYTE COUNT: 5.52 x10E6/uL
  HEMATOCRIT: 34.27%
  HEMOGLOBIN: 13.27 G/DL
  LEUKOCYTE COUNT: 19.63 x10E3/uL
  LYMPHOCYTE: 81.33%
  MEAN CORPUSCULAR HEMOGLOBIN: 24.13 pg
  MEAN CORPUSCULAR HEMOGLOBIN CONCENTRATION: 38.83 G/DL
  MEAN CORPUSCULAR VOLUME: 62.2 fL
  MONOCYTE: 3%
  NEUTROPHIL: 15.33%
  NUCLEATED RED BLOOD CELLS: 0.33 /100WBC
  PLATELET COUNT: 1017.33 x10E3/uL
  ALANINE AMINOTRANSFERASE: 253.67 u/L
  ALBUMIN: 3.4 G/DL
  ALKALINE PHOSPHATASE: 742 u/L
  ASPARTATE AMINOTRANSFERASE: 450.67 u/L
  BLOOD UREA NITROGEN: 10.67 mg/dL
  CARBON DIOXIDE: 24.33 mmol/L
  CHLORIDE: 102.33 MEQ/L
  CHOLESTEROL: 143.67 mg/dL
  CREATINE PHOSPHOKINASE: 1027.33 u/L
  CREATININE: 0.14 mg/dL
  GLUCOSE: 152 mg/dL
  LACTATE DEHYDROGENASE: 723.67 u/L
  LIPASE: 11 u/L
  PHOSPHORUS: 11.77 mg/dL
  POTASSIUM: 5.87 MEQ/L
  SODIUM: 142.6 MEQ/L
  TOTAL BILIRUBIN: 0.9 mg/dL
  TOTAL PROTEIN: 5.13 G/DL
  URIC ACID: 1.27 mg/dL
[2]
  ABSOLUTE BASOPHIL: 0 CELLS/uL
  ABSOLUTE EOSINOPHIL: 0 CELLS/uL
  ABSOLUTE LYMPHOCYTE: 23023 CELLS/uL
  ABSOLUTE MONOCYTE: 1729.67 CELLS/uL
  ABSOLUTE SEGMENTED NEUTROPHIL: 3714 CELLS/uL
  BASOPHIL: 0%
  EOSINOPHIL: 0%
  ERYTHROCYTE COUNT: 5.81 x10E6/uL
  HEMATOCRIT: 34.63%
  HEMOGLOBIN: 13.53 G/DL
  LEUKOCYTE COUNT: 28.47 x10E3/uL
  LYMPHOCYTE: 81%
  MEAN CORPUSCULAR HEMOGLOBIN: 23.33 pg
  MEAN CORPUSCULAR HEMOGLOBIN CONCENTRATION: 39.1 G/DL
  MEAN CORPUSCULAR VOLUME: 59.67 fL
  MONOCYTE: 6%
  NEUTROPHIL: 13%
  NUCLEATED RED BLOOD CELLS: 0 /100WBC
  PLATELET COUNT: 1124.33 x10E3/uL
  ALANINE AMINOTRANSFERASE: 131.67 u/L
  ALBUMIN: 3.4 G/DL
  ALKALINE PHOSPHATASE: 589 u/L
  ASPARTATE AMINOTRANSFERASE: 255.33 u/L
  BLOOD UREA NITROGEN: 14 mg/dL
  CARBON DIOXIDE: 28.33 mmol/L
  CHLORIDE: 101.67 MEQ/L
  CHOLESTEROL: 138.33 mg/dL
  CREATINE PHOSPHOKINASE: 541 u/L
  CREATININE: 0.23 mg/dL
  GLUCOSE: 138.33 mg/dL
  LACTATE DEHYDROGENASE: 636.33 u/L
  LIPASE: 11.67 u/L
  PHOSPHORUS: 9.3 mg/dL
  POTASSIUM: 5.58 MEQ/L
  SODIUM: 142.97 MEQ/L
  TOTAL BILIRUBIN: 0.83 mg/dL
  TOTAL PROTEIN: 5.7 G/DL
  URIC ACID: 1.2 mg/dL
[3]
  ABSOLUTE BASOPHIL: 0 CELLS/uL
  ABSOLUTE EOSINOPHIL: 0 CELLS/uL
  ABSOLUTE LYMPHOCYTE: 10998 CELLS/uL
  ABSOLUTE MONOCYTE: 210.33 CELLS/uL
  ABSOLUTE SEGMENTED NEUTROPHIL: 1658.33 CELLS/uL
  BASOPHIL: 0%
  EOSINOPHIL: 0%
  ERYTHROCYTE COUNT: 5.48 x10E6/uL
  HEMATOCRIT: 34.13%
  HEMOGLOBIN: 13.5 G/DL
  LEUKOCYTE COUNT: 12.87 x10E3/uL
  LYMPHOCYTE: 85.67%
  MEAN CORPUSCULAR HEMOGLOBIN: 24.7 pg
  MEAN CORPUSCULAR HEMOGLOBIN CONCENTRATION: 39.6 G/DL
  MEAN CORPUSCULAR VOLUME: 62.3 fL
  MONOCYTE: 1.67%
  NEUTROPHIL: 12.67%
  NUCLEATED RED BLOOD CELLS: 0 /100WBC
  PLATELET COUNT: 1052.33 x10E3/uL
  ALANINE AMINOTRANSFERASE: 74.67 u/L
  ALBUMIN: 3.93 G/DL
  ALKALINE PHOSPHATASE: 451 u/L
  ASPARTATE AMINOTRANSFERASE: 94.33 u/L
  BLOOD UREA NITROGEN: 12 mg/dL
  CARBON DIOXIDE: 24 mmol/L
  CHLORIDE: 102.67 MEQ/L
  CHOLESTEROL: 79 mg/dL
  CREATINE PHOSPHOKINASE: 294.67 u/L
  CREATININE: 0.2 mg/dL
  GLUCOSE: 157.33 mg/dL
  LACTATE DEHYDROGENASE: 177 u/L
  LIPASE: 12.33 u/L
  PHOSPHORUS: 12.33 mg/dL
  POTASSIUM: 5.95 MEQ/L
  SODIUM: 143.97 MEQ/L
  TOTAL BILIRUBIN: 0.17 mg/dL
  TOTAL PROTEIN: 5.47 G/DL
  URIC ACID: 1.27 mg/dL
[4]
  ABSOLUTE BASOPHIL: 0 CELLS/uL
  ABSOLUTE EOSINOPHIL: 0 CELLS/uL
  ABSOLUTE LYMPHOCYTE: 11058.67 CELLS/uL
  ABSOLUTE MONOCYTE: 46 CELLS/uL
  ABSOLUTE SEGMENTED NEUTROPHIL: 1295.33 CELLS/uL
  BASOPHIL: 0%
  EOSINOPHIL: 0%
  ERYTHROCYTE COUNT: 5.5 x10E6/uL
  HEMATOCRIT: 34.53%
  HEMOGLOBIN: 13.8 G/DL
  LEUKOCYTE COUNT: 12.4 x10E3/uL
  LYMPHOCYTE: 89.67%
  MEAN CORPUSCULAR HEMOGLOBIN: 25.13 pg
  MEAN CORPUSCULAR HEMOGLOBIN CONCENTRATION: 39.97 G/DL
  MEAN CORPUSCULAR VOLUME: 62.83 fL
  MONOCYTE: 0.33%
  NEUTROPHIL: 10%
  NUCLEATED RED BLOOD CELLS: 0 /100WBC
  PLATELET COUNT: 1265 x10E3/uL
  ALANINE AMINOTRANSFERASE: 63.67 u/L
  ALBUMIN: 4.2 G/DL
  ALKALINE PHOSPHATASE: 474 u/L
  ASPARTATE AMINOTRANSFERASE: 88.67 u/L
  BLOOD UREA NITROGEN: 11.33 mg/dL
  CARBON DIOXIDE: 35.33 mmol/L
  CHLORIDE: 100.33 MEQ/L
  CHOLESTEROL: 59.33 mg/dL
  CREATINE PHOSPHOKINASE: 280.67 u/L
  CREATININE: 0.16 mg/dL
  GLUCOSE: 138.67 mg/dL
  LACTATE DEHYDROGENASE: 317.67 u/L
  LIPASE: 10.67 u/L
  PHOSPHORUS: 10.57 mg/dL
  POTASSIUM: 6.26 MEQ/L
  SODIUM: 144.83 MEQ/L
  TOTAL BILIRUBIN: 0.2 mg/dL
  TOTAL PROTEIN: 5.93 G/DL
  URIC ACID: 1.4 mg/dL
